{
  "source": "patent US20050208151A1",
  "about": "“Treatment of rheumatoid arthritis with FLIP antagonists” (Entelos, Inc., priority 2003, published 2005)",
  "key": {"[1]": {"system": "RA patients' synovial macrophages", "details": "Fas agonist with vs without BIS, which blocked FLIP expression; cited from earlier work"}, "[2]": {"system": "MNC and macrophages from RA synovial fluid", "experiment": "uptake of FITC-labeled oligonucleotides by flow cytometry", "type": "cell-based, human", "details": "10-20 μM, 24h, 70% ETOH fixed cells", "procedure": "MNC and macrophages from RA synovial fluid are incubated for 24h with FITC-labeled antisense phosphorothioate oligodeoxynucleotides (10-20 μM) comprising the FLIP initiation codon (5′-[…]-3′) (SEQ ID NO: 2). A nonsense oligonucleotides is used as negative control (for example; 5′-TGGATCCGACATGTCAGA-3′) (SEQ ID NO: 3). Uptake of the FITC-labeled oligonucleotides are measured by flow cytometry on 70% ETOH fixed cells. A 80-90% transfection efficiency is expected. A general caspase inhibitor (e.g., 20 μM zVAD.fmk) is used as negative control in all apoptosis assays. As a positive control of macrophage apoptosis, the cells are treated with 50 μM of the phosphatidylinositol 3-kinase inhibitor LY294002 for 24 h."}, "rheumatoid arthritis": {"system": "rheumatoid arthritis", "details": "methotrexate treatment; level after 6 months therapy; cited from earlier work"}},
  "data": [
    {"molecule": "CN(C)CCCn1cc(C2=C(c3c[nH]c4ccccc34)C(=O)NC2=O)c2ccccc21", "note": "[bisinodylmaleimide I]", "values": [
      {"measurement": "increase in macrophage apoptosis", "setting": "[1]", "value": "~9", "unit": "fold"}
    ]},
    {"molecule": "5′-GACTTCAGCAGACATCCTAC-3′ (DNA, all phosphorothioate, methylation of C not given here; FITC label; listed as Homo sapiens) [FITC-labeled antisense phosphorothioate oligodeoxynucleotides comprising the FLIP initiation codon]", "values": [
      {"measurement": "transfection efficiency (uptake of FITC-labeled oligonucleotides)", "setting": "[2]", "value": "80-90%"}
    ]},
    {"molecule": "CN(Cc1cnc2nc(N)nc(N)c2n1)c1ccc(C(=O)N[C@@H](CCC(=O)O)C(=O)O)cc1", "note": "[Methotrexate, methotrexate]", "values": [
      {"measurement": "decrease in rate of cartilage degradation", "setting": "rheumatoid arthritis", "value": "approximately 17%"},
      {"measurement": "decrease in synovial cell density", "setting": "rheumatoid arthritis", "value": "approximately 33%"}
    ]}
  ]
}
